From ChEMBL document CHEMBL5053546, “Peptidomimetic analogues of an Arg-Trp-x-x-Trp motif responsible for interaction of translocase MraY with bacteriophage ϕX174 lysis protein E” (Bioorg Med Chem, 2021)
Converted amounts (≈) assume the structure as drawn. The source made the active and inactive calls. The calls are words filed in the database; no cut-off is given here.

Experiments:
Pseudomonas fluorescens = assay: Antibacterial activity against Pseudomonas fluorescence Pf-5 assessed as reduction in bacterial growth incubated overnight by microplate reader analysis; format: functional
Bacillus subtilis [1] = assay: Antibacterial activity against Bacillus subtilis W23 assessed as reduction in bacterial growth incubated overnight by microplate reader analysis; format: functional
Escherichia coli [2] = assay: Inhibition of MraY overexpressed in Escherichia coli membrane using UDP-MurNAc-L-Ala-gamma-D-Glu-L-Lys(N epsilon-dansyl)-D-Ala-D-Ala as substrate at 200 ug/ml by fluoresence enhancement assay; format: cell membranes; conditions: dose 200.0 µg/ml
Escherichia coli [3] = assay: Antibacterial activity against Escherichia coli K-12 assessed as reduction in bacterial growth incubated overnight by microplate reader analysis; format: functional
Acinetobacter baumannii = assay: Antibacterial activity against multi drug resistant ESBL positive Acinetobacter baumannii NCTC 13420 assessed as reduction in bacterial growth by CLSI protocol based assay; format: functional
Klebsiella pneumoniae = assay: Antibacterial activity against ESBL positive Klebsiella pneumoniae ATCC 700603 assessed as reduction in bacterial growth by CLSI protocol based assay
Pseudomonas aeruginosa [4] = assay: Antibacterial activity against multi drug resistant Pseudomonas aeruginosa NCTC 13437 assessed as reduction in bacterial growth by CLSI protocol based assay; format: functional
Enterococcus faecalis = assay: Antibacterial activity against high level aminoglycoside resistant Enterococcus faecalis ATCC 51299 assessed as reduction in bacterial growth by CLSI protocol based assay; format: functional
Enterobacter cloacae = assay: Antibacterial activity against ESBL positive Enterobacter cloacae NCTC 13405 assessed as reduction in bacterial growth by CLSI protocol based assay; format: functional
Escherichia coli [5] = assay: (§1) Inhibition of Escherichia coli MraY overexpressed in Escherichia coli membrane using UDP-MurNAc-L-Ala-gamma-D-Glu-L-Lys(N epsilon-dansyl)-D-Ala-D-Ala and undecaprenyl phosphate as substrate assessed as reduction in lipid II synthesis at 200 uM incubated for 30 mins in presence of [3H]-UDPGlcNAc by liquid scintillation counting analysis relative to control; format: cell membranes
Staphylococcus aureus = assay: Antibacterial activity against Staphylococcus aureus MRSA JE2 USA300 assessed as reduction in bacterial growth by CLSI protocol based assay; format: functional
Escherichia coli [6] = assay: as §1, with “of” for “of Escherichia coli”, “analysis” for “analysis relative to control”; format: cell membranes
Escherichia coli [7] = assay: Inhibition of MraY overexpressed in Escherichia coli membrane using UDP-MurNAc-L-Ala-gamma-D-Glu-L-Lys(N epsilon-dansyl)-D-Ala-D-Ala as substrate at 200 uM by continuous fluoresence assay; format: cell membranes
Escherichia coli [8] = assay: Bacteriocidal activity against Escherichia coli at 250 ug/ml incubated for 1 hr followed by alamar blue addition measured after 2 to 3 hrs by fluorescence based analysis; format: functional, organism-based; conditions: dose 250.0 µg/ml
Escherichia coli [9] = assay: Bacteriostatic activity against Escherichia coli at 250 ug/ml incubated for 1 hr followed by alamar blue addition measured after 2 to 3 hrs by fluorescence based analysis; format: functional, organism-based; conditions: dose 250.0 µg/ml
Escherichia coli [10] = assay: Antibacterial activity against Escherichia coli K-12 assessed as reduction in bacterial growth by NCCLS protocol based broth dilution method; format: functional
Pseudomonas aeruginosa [11] = assay: Antibacterial activity against Pseudomonas aeruginosa assessed as reduction in bacterial growth by NCCLS protocol based broth dilution method; format: functional
Bacillus subtilis [12] = assay: Antibacterial activity against Bacillus subtilis assessed as reduction in bacterial growth by NCCLS protocol based broth dilution method; format: functional
Escherichia coli [13] = assay: Inhibition of Escherichia coli MraY overexpressed in Escherichia coli membrane using UDP-MurNAc-L-Ala-gamma-D-Glu-L-Lys(N epsilon-dansyl)-D-Ala-D-Ala as substrate at 200 uM by continuous fluoresence assay relative to control; format: cell membranes
[14] = Inhibition of MraY overexpressed in Escherichia coli membrane using UDP-MurNAc-L-Ala-gamma-D-Glu-L-Lys(N epsilon-dansyl)-D-Ala-D-Ala as substrate by continuous fluoresence assay; format: cell membranes

SMILES	MIC50 (Pseudomonas fluorescens) [µg/mL]	MIC50 (Bacillus subtilis [1]) [µg/mL]	inhibition (Escherichia coli [2])	MIC50 (Escherichia coli [3]) [µg/mL]	MIC50 (Acinetobacter baumannii) [µg/mL]	MIC50 (Klebsiella pneumoniae) [µg/mL]	MIC50 (Pseudomonas aeruginosa [4]) [µg/mL]	MIC50 (Enterococcus faecalis) [µg/mL]	MIC50 (Enterobacter cloacae) [µg/mL]	MIC50 (Staphylococcus aureus) [µg/mL]	further results
CCCCCCCCNC(=O)CNC(=O)[C@@H](N)CCCCN	18 (≈ 57.2 µM)	2 (≈ 6.36 µM)	inactive	10 (≈ 31.8 µM)							
CCCCCCCCOC(=O)[C@H](Cc1ccccc1)NC(=O)[C@@H](N)CCCNC(=N)N	64 (≈ 148 µM)	11 (≈ 25.4 µM)	inactive	11 (≈ 25.4 µM)							
CCCCCCCCOC(=O)[C@H](Cc1c[nH]c2ccccc12)NC(=O)[C@H](CCCNC(=N)N)NC(=O)OC(C)(C)C	21 (≈ 36.7 µM)	8 (≈ 14 µM)		12 (≈ 21 µM)							
CCCCCCC(=O)Nc1ccc(C(=O)N[C@@H](CCCCN)C(=O)OC)c(OCCc2c[nH]c3ccccc23)c1	56 (≈ 102 µM)	28 (≈ 50.8 µM)		28 (≈ 50.8 µM)	> 256	> 256	> 256	64 (≈ 116 µM)	> 256	> 256	inhibition (Escherichia coli [5]): 12%
CCCCCCCCNC(=O)c1ccc(NC(=O)[C@@H](N)CCCNC(=N)N)c(OCCc2c[nH]c3ccccc23)c1	> 125	10 (≈ 17.7 µM)		> 125							inhibition (Escherichia coli [6]): inactive; inhibition (Escherichia coli [7]): inactive
CCCCCCCCNC(=O)[C@H](Cc1c[nH]c2ccccc12)NC(=O)[C@@H](N)CCCCN	26 (≈ 58.6 µM)	11 (≈ 24.8 µM)	inactive	17 (≈ 38.3 µM)							Activity (Escherichia coli [8]): Active
CCCCCCCCOC(=O)[C@H](Cc1c[nH]c2ccccc12)NC(=O)[C@@H](N)CCCNc1ncccn1	45 (≈ 88.5 µM)	10 (≈ 19.7 µM)	inactive	9 (≈ 17.7 µM)							
CCCCCCCCOC(=O)[C@H](Cc1c[nH]c2ccccc12)NC(=O)[C@H](CCCNC(=N)N)NC(C)=O	19 (≈ 36.9 µM)	9 (≈ 17.5 µM)		42 (≈ 81.6 µM)							
CCCCCCCCOC(=O)[C@H](Cc1c[nH]c2ccccc12)NC(=O)[C@@H](N)CCCNC(=N)N	18 (≈ 38.1 µM)	13 (≈ 27.5 µM)	inactive	5 (≈ 10.6 µM)	> 256	> 256	> 256	> 256	> 256	> 256	Activity (Escherichia coli [9]): Active; MIC50 (Escherichia coli [10]): 31 µg/mL (≈ 65.6 µM); MIC50 (Pseudomonas aeruginosa [11]): 40 µg/mL (≈ 84.6 µM); MIC50 (Bacillus subtilis [12]): 8 µg/mL (≈ 16.9 µM)
CCCCCCCCc1ccc(C(=O)N[C@@H](CCCNC(=N)N)C(=O)O)c(OCCc2c[nH]c3ccccc23)c1	> 125	10 (≈ 18.2 µM)		30 (≈ 54.6 µM)							inhibition (Escherichia coli [6]): inactive; inhibition (Escherichia coli [7]): inactive
CCCCCCCCCCOC(=O)[C@H](Cc1c[nH]c2ccccc12)NC(=O)[C@@H](N)CCCNC(=N)N	3 (≈ 5.99 µM)	8 (≈ 16 µM)	inactive	3 (≈ 5.99 µM)							
CCCCCCC(=O)Nc1ccc(C(=O)N[C@@H](CCCCN)C(=O)OC)c(OCc2ccccc2)c1	125 (≈ 251 µM)	44 (≈ 88.4 µM)		8 (≈ 16.1 µM)	> 256	> 256	> 256	16 (≈ 32.2 µM)	> 256	> 256	inhibition (Escherichia coli [13]): 36%
CCCCCCC(=O)N(Cc1ccccc1)c1ccc(C(=O)N[C@@H](CCCCN)C(=O)OC)c(OCCc2c[nH]c3ccccc23)c1	> 125	28 (≈ 43.7 µM)		4 (≈ 6.24 µM)	> 256	> 256	> 256	8 (≈ 12.5 µM)	> 256	> 256	inhibition (Escherichia coli [5]): 22%
CCCCCCCCOC(=O)[C@H](Cc1c[nH]c2ccccc12)NC(=O)[C@@H](N)CCCCN	5 (≈ 11.2 µM)	1 (≈ 2.25 µM)	inactive	2 (≈ 4.5 µM)							Activity (Escherichia coli [8]): Active
CCCCCCC(=O)N(CCc1c[nH]c2ccccc12)c1ccc(C(=O)N[C@@H](CCCCN)C(=O)OC)c(OCCc2c[nH]c3ccccc23)c1	> 125	58 (≈ 83.6 µM)		4 (≈ 5.76 µM)	> 256	> 256	> 256	16 (≈ 23.1 µM)	> 256	> 256	inhibition (Escherichia coli [5]): 21%
CCCCCCCCOC(=O)[C@H](Cc1ccc(O)cc1)NC(=O)[C@@H](N)CCCNC(=N)N	124 (≈ 276 µM)	25 (≈ 55.6 µM)	inactive	118 (≈ 262 µM)							
CCCCCCOC(=O)[C@H](Cc1c[nH]c2ccccc12)NC(=O)[C@@H](N)CCCNC(=N)N	53 (≈ 119 µM)	13 (≈ 29.2 µM)	inactive	37 (≈ 83.2 µM)							
CCCCCCCCNC(=O)[C@H](Cc1c[nH]c2ccccc12)NC(=O)[C@@H](N)CCCNC(=N)N	20 (≈ 42.4 µM)	7 (≈ 14.8 µM)	inactive	3 (≈ 6.36 µM)							Activity (Escherichia coli [8]): Active
CCCCCCCCOC(=O)[C@H](Cc1c[nH]c2ccccc12)NC(=O)[C@@H](N)Cc1cnc[nH]1	21 (≈ 46.3 µM)	12 (≈ 26.5 µM)	inactive	8 (≈ 17.6 µM)	64 (≈ 141 µM)	64 (≈ 141 µM)	8 (≈ 17.6 µM)	8 (≈ 17.6 µM)	32 (≈ 70.5 µM)	16 (≈ 35.3 µM)	
CCCCCCC(=O)N(Cc1ccccc1)c1ccc(C(=O)N[C@@H](CCCCN)C(=O)OC)c(OCc2ccccc2)c1	46 (≈ 78.3 µM)	12 (≈ 20.4 µM)		7 (≈ 11.9 µM)	> 256	> 256	> 256	16 (≈ 27.2 µM)	> 256	> 256	inhibition (Escherichia coli [13]): 62%; IC50 [14]: 140 µM
